Source: patent US9056840B2, “Coelenterazine analogues and coelenteramide analogues” (JNC Corporation, priority 2010, dated 2015)

Assays:
[1] = Fluorescence spectra of coelenteramide analogue alone (absence of apoaequorin); assay type: physicochemical; conditions: analogue alone 8 μg/ml
How it was run: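 Coelenteramide analogue at 8 μg/ml without apoaequorin in 50 mM Tris-HCl pH 7.6 with 1 mM DTT plus either 10 mM EDTA or 10 mM CaCl2. Fluorescence spectra recorded at 25° C, excitation 337 nm, 3 nm bandwidth.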

apoaequorin [2] = molecular target: T1, apoaequorin (Aequorea victoria, UniProt P07164); assay: Fluorescence spectra of semi-synthetic gFP (coelenteramide analogue + apoaequorin, EDTA); assay type: physicochemical; conditions: 10 mM EDTA buffer, excitation 337 nm
T1 construct: purchased Chisso Corporation
T1 sequence (P07164 other isoform, or with tags, fused parts or gaps with the stated changes): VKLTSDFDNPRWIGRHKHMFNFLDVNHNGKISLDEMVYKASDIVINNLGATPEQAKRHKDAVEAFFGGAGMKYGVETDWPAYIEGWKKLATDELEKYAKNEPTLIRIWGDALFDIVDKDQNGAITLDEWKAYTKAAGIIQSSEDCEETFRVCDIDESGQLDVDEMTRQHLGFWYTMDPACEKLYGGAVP
How it was run: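 Apoaequorin (0.2 mg) incubated with coelenteramide analogue 16 h at 4 °C in 50 mM Tris-HCl pH 7.6, 10 mM EDTA, 1 mM DTT to form semi-synthetic gFP. Emission spectra at 25 °C, excitation 337 nm. Analogue-alone controls at 8 μg/ml final, in EDTA or 10 mM CaCl2 buffer.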

apoaequorin [3] = molecular target: T1, apoaequorin; assay: Fluorescence spectra of semi-synthetic BFP (coelenteramide analogue + apoaequorin, CaCl2); assay type: physicochemical; conditions: 10 mM CaCl2 buffer, excitation 337 nm
How it was run: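 Apoaequorin (0.2 mg) was mixed with coelenteramide analogue in 50 mM Tris-HCl pH 7.6, 10 mM CaCl2, 1 mM DTT and held 16 h at 4° C. Analogue-alone controls were run at 8 μg/ml final in the same buffer with 10 mM EDTA or CaCl2. Spectra were recorded at 25° C., excitation 337 nm.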

apoaequorin [4] = molecular target: T1, apoaequorin; assay: Luciferase activity of semi-synthetic BFPs using coelenterazine as substrate; assay type: biochemical; conditions: Imax, 10 mM CaCl2, 10 seconds, BFP from CTMD = 100
Method: To confirm that semi-synthetic BFPs prepared from coelenteramide analogues and apoaequorin, which are novel fluorescent proteins having luciferase activity, the luminescence reaction was performed in the presence of calcium ions, using coelenterazine as a light emitting substrate. After 5 μl (corresponding to 1 μg protein) of a solution of semi-synthetic BFP prepared in EXAMPLE 12 was added to 100 μl of 50 mM Tris-HC 1 (pH 7.6) containing 10 mM CaCl2, 1 μl of a solution of coelenterazine (1 μg/μl) in ethanol was mixed with the solution to start the luminescence reaction. The luminescence activity was measured for 10 seconds on a luminometer luminescencer-PSN AB2200 (manufactured by Atto Co., Ltd.). The luminescence activity was determined by repeating the measurement of luminescence activity described above twice and expressed in terms of the maximum luminescence intensity (Imax) of luminescence activity.

[5] = 10 mM CaCl2 buffer pH 7.6, excitation 337 nm
[6] = 10 mM EDTA buffer pH 7.6, excitation 337 nm

O=C(Cc1ccc(O)cc1)Nc1ncc(-c2ccc(O)cc2)nc1Cc1ccccc1 [Coelenteramide]
Coelenteramide (Buffer containing CaCl2) Fluorescence intensity (rlu) [1, 5]: 5.9 rlu | Coelenteramide (Buffer containing CaCl2) Maximum fluorescence wavelength λmax (nm) [1, 5]: 457.0 nm | Coelenteramide (EDTA-containing buffer) Fluorescence intensity (rlu) [1, 6]: 4.6 rlu | Coelenteramide (EDTA-containing buffer) Maximum fluorescence wavelength λmax (nm) [1, 6]: 458.0 nm | Semi-synthetic gFP (EDTA-containing buffer) Fluorescence intensity (rlu) (apoaequorin [2]): 165.2 rlu | Semi-synthetic gFP (EDTA-containing buffer) Maximum fluorescence wavelength λmax (nm) (apoaequorin [2]): 482.5 nm | Fluorescence intensity (apoaequorin [3]): 151.2 rlu | Semi-synthetic BFP (Buffer containing CaCl2) Maximum fluorescence wavelength λmax (nm) (apoaequorin [3]): 468.5 nm | Luciferase activity of semi-synthetic BFP (%) (apoaequorin [4]): 100.0%
